From patent US20110039879A1, “METHODS FOR INCREASING WHITE BLOOD CELLS” (FibroGen ,Inc., priority 2007, published 2011)

Legend:
Assay type in all cases: in vivo, Swiss-Webster mice
[1] = test system: total white blood cell (WBC); assay: Total white blood cells by complete blood count on day 8, dosing day 1, 3, 5; settings: mice, oral gavage, measured on day 8
neutrophils = assay: Neutrophils by complete blood count on day 8, dosing day 1, 3, 5; settings: mice, oral gavage, 6 mg/kg on day 1, day 3 and day 5, measured on day 8; for change in vivo at 6 mg/kg: Mus musculus, Neutrophil, 192 h, read-out: Neutrophils % Increase Over Control
lymphocytes = assay: Lymphocytes by complete blood count on day 8, dosing day 1, 3, 5; settings: mice, oral gavage, 6 mg/kg on day 1, day 3 and day 5, measured on day 8; for change in vivo at 6 mg/kg: Mus musculus, Lymphocyte, 192 h, read-out: Lymphocytes % Increase Over Control
Procedure: (§1) To examine the effect of compounds and methods of the present invention on increasing white blood cells, the following studies were performed. In one series of experiments, male Swiss-Webster mice were administered various compounds of the present invention via oral gavage using a ball-tipped gavage needle. […] Animals were dosed once daily for 3 or 4 days. Six hours after the final dosing, 200 μl blood samples were collected and total white blood cell, neutrophil, and lymphocyte levels were measured by complete blood count (CBC) using a CellDyn cell analyzer (Abbott Laboratories).
(§2) In another series of experiments, male Swiss-Webster mice were administered various compounds (see Table 7 and Table 8) of the present invention via oral gavage using a ball-tipped gavage needle. […] Total WBC, neutrophil, lymphocyte, and monocyte levels were measured in mice as described above on day 8 following administration of compound on day 1, day 3, and day 5.

monocytes = assay: Monocytes by complete blood count on day 8, dosing day 1, 3, 5; settings: mice, oral gavage, 6 mg/kg on day 1, day 3 and day 5; measured on day 8
[2] = test system: total white blood cell (WBC); assay: Total white blood cells by complete blood count on day 8, dosing day 1, 3, 5; settings: Mus musculus, 192 h, mice, oral gavage, measured on day 8, read-out: Total WBC % Increase Over Control; for change in vivo at 200 mg/kg: 200 mg/kg on day 1, day 3 and day 5; for change in vivo at 20 mg/kg: 20 mg/kg on day 1, day 3 and day 5; for change in vivo at 100 mg/kg: 100 mg/kg on day 1, day 3 and day 5
Procedure: as §1, §2

[3] = Mus musculus, 192 h, 6 mg/kg on day 1, day 3 and day 5, read-out: Total WBC % Increase Over Control
[4] = 6 mg/kg on day 1, day 3 and day 5
[5] = 200 mg/kg on day 1, day 3 and day 5
[6] = 20 mg/kg on day 1, day 3 and day 5
[7] = 100 mg/kg on day 1, day 3 and day 5
[8] = 60 mg/kg on day 1, day 3 and day 5

In the case of `N#Cc1nc(C(=O)NCC(=O)O)c(O)c2sccc12` [Compound AA, [(4-Cyano-7-hydroxy-thieno[3,2-c]pyridine-6-carbonyl)-amino]-acetic acid], the change in vivo at 2 mg/kg ([1]; Mus musculus, 192 h, 2 mg/kg on day 1, day 3 and day 5, read-out: Total WBC % Increase Over Control) is reported as 20% and the “Total WBC” value ([1]; 2 mg/kg on day 1, day 3 and day 5) is reported as 7.1 10^3 cells/μl.
With `O=C(O)CNC(=O)c1ncc2c(Oc3ccccc3)cccc2c1O` [Compound AB, [(4-Hydroxy-8-phenoxy-isoquinoline-3-carbonyl)-amino]-acetic acid] the change in vivo at 6 mg/kg (neutrophils) was 398%, the Neutrophils (neutrophils) was 2.8 10^3 cells/μl and the change in vivo at 6 mg/kg (lymphocytes) was 42%. The Lymphocytes (lymphocytes) was 6.8 10^3 cells/μl, the change in vivo at 6 mg/kg [1, 3] was 78% and the “Total WBC” value [1, 4] was 9.8 10^3 cells/μl. The Monocytes (monocytes) was 0.2 10^3 cells/μl.
In the case of `N#Cc1nc(C(=O)NCC(=O)O)c(O)c2cccc(Oc3ccccc3)c12` [Compound AD, [(1-Cyano-4-hydroxy-8-phenoxy-isoquinoline-3-carbonyl)-amino]-acetic acid], the “Total WBC” value [1, 5] is reported as 7.6 10^3 cells/μl and the change in vivo at 200 mg/kg [2] is reported as 10%.
With `Cc1nc(C(=O)NCC(=O)O)c(O)c2cccc(Oc3ccc(F)cc3)c12` [Compound AE, {[8-(4-Fluoro-phenoxy)-4-hydroxy-1-methyl-isoquinoline-3-carbonyl]-amino}-acetic acid] the change in vivo at 6 mg/kg (neutrophils) was 175%, the Neutrophils (neutrophils) was 1.1 10^3 cells/μl and the change in vivo at 6 mg/kg (lymphocytes) was 105%. The Lymphocytes (lymphocytes) was 11.0 10^3 cells/μl, the change in vivo at 6 mg/kg [1, 3] was 109% and the “Total WBC” value [1, 4] was 12.3 10^3 cells/μl. The Monocytes (monocytes) was 0.1 10^3 cells/μl.
With `N#Cc1nc(C(=O)NCC(=O)O)c(O)c2cccc(Oc3ccc(F)cc3)c12` [Compound AF, {[1-Cyano-8-(4-fluoro-phenoxy)-4-hydroxy-isoquinoline-3-carbonyl]-amino}-acetic acid] the “Total WBC” value [1, 5] was 8.2 10^3 cells/μl and the change in vivo at 200 mg/kg [2] was 35%.
`N#Cc1nc(C(=O)NCC(=O)O)c(O)c2cc(Oc3ccccc3)ccc12` [Compound AG, [(1-Cyano-4-hydroxy-6-phenoxy-isoquinoline-3-carbonyl)-amino]-acetic acid] was tested, and the “Total WBC” value [1, 6] was 7.6 10^3 cells/μl and the change in vivo at 20 mg/kg [2] was 25%.
For `N#Cc1nc(C(=O)NCC(=O)O)c(O)c2c(Oc3ccccc3)cccc12` [Compound AH, [(1-Cyano-4-hydroxy-5-phenoxy-isoquinoline-3-carbonyl)-amino]-acetic acid], the “Total WBC” value [1, 5] was 9.4 10^3 cells/μl and the change in vivo at 200 mg/kg [2] was 123%.
In the case of `COc1ccc(Cn2cc(Br)c3c(O)c(C(=O)NCC(=O)O)nc(C#N)c32)cc1` [Compound AJ, {[3-Bromo-7-cyano-4-hydroxy-1-(4-methoxy-benzyl)-1H-pyrrolo[2,3-c]pyridine-5-carbonyl]-amino}-acetic acid], the “Total WBC” value [1, 5] is reported as 21.5 10^3 cells/μl and the change in vivo at 200 mg/kg [2] is reported as 237%.
`COc1ccc(Cn2c(Cl)c(Cl)c3c(O)c(C(=O)NCC(=O)O)nc(C#N)c32)cc1` [Compound AK, {[2,3-Dichloro-7-cyano-4-hydroxy-1-(4-methoxy-benzyl)-1H-pyrrolo[2,3-c]pyridine-5-carbonyl]-amino}-acetic acid] was tested, and the “Total WBC” value [1, 5] was 16.8 10^3 cells/μl and the change in vivo at 200 mg/kg [2] was 105%.
With `COc1ccc(Cn2cc(Cl)c3c(O)c(C(=O)NCC(=O)O)nc(C#N)c32)cc1` [Compound AM, {[3-Chloro-7-cyano-4-hydroxy-1-(4-methoxy-benzyl)-1H-pyrrolo[2,3-c]pyridine-5-carbonyl]-amino}-acetic acid] the “Total WBC” value [1, 5] was 23.3 10^3 cells/μl and the change in vivo at 200 mg/kg [2] was 264%.
For `N#Cc1nc(C(=O)NCC(=O)O)c(O)c2c(Cl)cn(Cc3ccccc3F)c12` [Compound AN, {[3-Chloro-7-cyano-1-(2-fluoro-benzyl)-4-hydroxy-1H-pyrrolo[2,3-c]pyridine-5-carbonyl]-amino}-acetic acid], the “Total WBC” value [1, 5] was 23.2 10^3 cells/μl and the change in vivo at 200 mg/kg [2] was 179%.
`CC(C)CCn1cc(Cl)c2c(O)c(C(=O)NCC(=O)O)nc(C#N)c21` [Compound AO, {[3-Chloro-7-cyano-4-hydroxy-1-(3-methyl-butyl)-1H-pyrrolo[2,3-c]pyridine-5-carbonyl]-amino}-acetic acid] was tested, and the “Total WBC” value [1, 7] was 10.5 10^3 cells/μl and the change in vivo at 100 mg/kg [2] was 47%.
In the case of `N#Cc1nc(C(=O)NCC(=O)O)c(O)c2c(Cl)c(Cl)n(Cc3ccc4ccccc4c3)c12` [Compound AP, [(2,3-Dichloro-7-cyano-4-hydroxy-1-naphthalen-2-ylmethyl-1H-pyrrolo[2,3-c]pyridine-5-carbonyl)-amino]-acetic acid], the “Total WBC” value [1, 7] is reported as 10.8 10^3 cells/μl and the change in vivo at 100 mg/kg [2] is reported as 88%.
For `N#Cc1nc(C(=O)NCC(=O)O)c(O)c2cc(C(F)(F)F)n(Cc3ccccc3F)c12` [Compound AQ, {[7-Cyano-1-(2-fluoro-benzyl)-4-hydroxy-2-trifluoromethyl-1H-pyrrolo[2,3-c]pyridine-5-carbonyl]-amino}-acetic acid], the “Total WBC” value [1, 6] was 9.6 10^3 cells/μl and the change in vivo at 20 mg/kg [2] was 56%.
For `N#Cc1nc(C(=O)NCC(=O)O)c(O)c2ccn(Cc3ccccc3)c12` [Compound AR, [(1-Benzyl-7-cyano-4-hydroxy-1H-pyrrolo[2,3-c]pyridine-5-carbonyl)-amino]-acetic acid], the “Total WBC” value [1, 7] was 9.5 10^3 cells/μl and the change in vivo at 100 mg/kg [2] was 71%.
In the case of `N#Cc1nc(C(=O)NCC(=O)O)c(O)c2c(Cl)c(Cl)n(Cc3ccc(-c4ccccc4)cc3)c12` [Compound AV, [(1-Biphenyl-4-ylmethyl-2,3-dichloro-7-cyano-4-hydroxy-1H-pyrrolo[2,3-c]pyridine-5-carbonyl)-amino]-acetic acid], the “Total WBC” value [1, 7] is reported as 15.2 10^3 cells/μl and the change in vivo at 100 mg/kg [2] is reported as 137%.
`CC(C)Oc1ccc(Cn2c(Cl)c(Cl)c3c(O)c(C(=O)NCC(=O)O)nc(C#N)c32)cc1` [Compound AX, {[2,3-Dichloro-7-cyano-4-hydroxy-1-(4-isopropoxy-benzyl)-1H-pyrrolo[2,3-c]pyridine-5-carbonyl]-amino}-acetic acid] was tested, and the “Total WBC” value [1, 7] was 12.8 10^3 cells/μl and the change in vivo at 100 mg/kg [2] was 81%.
`CC(C)Oc1ccc(CN2C=CC3C(O)=C(C(=O)NCC(=O)O)N=C(C#N)C32)cc1` (centres unmarked) [Compound AZ, {[7-Cyano-4-hydroxy-1-(4-isopropoxy-benzyl)-3a,7a-dihydro-1H-pyrrolo[2,3-c]pyridine-5-carbonyl]-amino}-acetic acid] was tested, and the “Total WBC” value [1, 8] was 11.6 10^3 cells/μl and the change in vivo at 60 mg/kg [2, 8] was 79%.
For `N#Cc1nc(C(=O)NCC(=O)O)c(O)c2c(Oc3cccc(Cl)c3)cccc12` [Compound BB, {[5-(3-Chloro-phenoxy)-1-cyano-4-hydroxy-isoquinoline-3-carbonyl]-amino}-acetic acid], the “Total WBC” value [1, 5] was 20.1 10^3 cells/μl and the change in vivo at 200 mg/kg [2] was 227%.
For `CC(C)Oc1ccc(Cn2cc(Cl)c3c(O)c(C(=O)NCC(=O)O)nc(C#N)c32)cc1` [Compound BC, {[3-Chloro-7-cyano-4-hydroxy-1-(4-isopropoxy-benzyl)-1H-pyrrolo[2,3-c]pyridine-5-carbonyl]-amino}-acetic acid], the “Total WBC” value [1, 7] was 15.9 10^3 cells/μl and the change in vivo at 100 mg/kg [2] was 148%.
With `CC(C)Oc1ccc(Cn2c(Cl)c(Cl)c3c(O)c(C(=O)N[C@@H](C)C(=O)O)nc(C#N)c32)cc1` [Compound BD, (S)-2-{[2,3-Dichloro-7-cyano-4-hydroxy-1-(4-isopropoxy-benzyl)-1H-pyrrolo[2,3-c]pyridine-5-carbonyl]-amino}-propionic acid] the “Total WBC” value [1, 5] was 14.1 10^3 cells/μl and the change in vivo at 200 mg/kg [2] was 93%.
For `O=C(O)CNC(=O)c1ncc2cc(Oc3ccc(F)cc3)ccc2c1O` [Compound U, {[7-(4-Fluoro-phenoxy)-4-hydroxy-isoquinoline-3-carbonyl]-amino}-acetic acid], the change in vivo at 6 mg/kg [1, 3] was 6% and the “Total WBC” value [1, 4] was 8.3 10^3 cells/μl.
With `O=C(O)CNC(=O)c1ncc2cc(Oc3ccc(F)c(Cl)c3)ccc2c1O` [Compound W, {[7-(3-Chloro-4-fluoro-phenoxy)-4-hydroxy-isoquinoline-3-carbonyl]-amino}-acetic acid] the “Total WBC” value [1, 5] was 8.4 10^3 cells/μl and the change in vivo at 200 mg/kg [2] was 80%.
